The text below walks through data of US6703399B2, “Halo-alkyl esters of camptothecins and methods of treating cancer using these compounds” (priority 2002, dated 2004).

The nature of data set [1]: Pharmacokinetics of CPT in human plasma, lactone half-life. The data set is classed as in vitro ADME.
A short description of data set [2]: Plasma CPT after intrastomach administration in mice, closed lactone share of AUC. The data set is classed as in vivo.
Data set [3] in a line: Plasma CPT after oral administration in humans, closed lactone share of AUC. The data set is classed as in vivo.
Data set [4] is described as follows: Plasma levels of 9NC after i.s. administration, share in closed lactone form. The data set is classed as in vivo. The conditions noted are these: species not given, mice from b8 and b10.
Data set [5] has as its system human tumor xenografts. Nature of the data set: Antitumor activity against human tumor xenografts in mice. The data set is classed as in vivo. The text has this:
(§1) Clearly, there is a pressing need for a modification which will slow and delay the lactone ring opening upon its entrance into the blood circulation.
On the technique in general: Xenograft models place foreign cells or tissue in a host animal.

In data set [6] the test system is human tumor xenografts. The conditions noted are these: in mice; cited from earlier work.
Data set [7] in a line: Plasma levels of 9NC after oral administration to Phase I clinical trial patients, share in closed lactone form. The data set is classed as in vivo, humans. The conditions noted are these: on average.
For another data set, the system named is tumors. In words: Clinical responses in Phase I patients. The conditions noted are these: in humans. The data set is classed as in vivo.
Text: as §1

For data set [8] the following is noted: water-soluble sodium carboxylate salt; cited from earlier work.

For 20(S)-camptothecin [CPT], in data set [1], the “half-life time of the drug with lactone intact” value is 30 min. In data set [2], the “closed lactone form, share of the area under the curve” value is reported as “approximately 54%”. Besides, in [3], the “closed lactone ring form, share of the area under the curve” value is recorded as “about 0.4%”.

As for `CC[C@@]1(O)C(=O)OCc2c1cc1n(c2=O)Cc2cc3c([N+](=O)[O-])cccc3nc2-1` [Example 9NC, 9-nitrocamptothecin], the “share of drug present in the plasma in the closed lactone form” value in data set [4] was determined as 57%. In addition, the complete tumor regressions in the data set with human tumor xenografts [5] is 32/32; in the data set on tumors, 2/32. The “potency relative to CPT against human tumor xenografts” value in the data set on human tumor xenografts [6] is listed as 2-3 times. Further, the “share of drug present in plasma in the closed lactone form” value in [7] is listed as around 3%.

On to `CC[C@@](O)(C(=O)[O-])c1cc2n(c(=O)c1CO)Cc1cc3ccccc3nc1-2.[Na+]` [sodium carboxylate salt], for which, in data set [8], the “anticancer activity in clinical evaluation” value is given as “devoid of anticancer activity” and the “toxicity in clinical evaluation” value was “severe toxicity”.
